From US20230323294A1, “DIFFERENTIATION OF CORTICAL NEURONS FROM HUMAN PLURIPOTENT STEM CELLS” (priority 2016, published 2023) come the findings set out here.

Assay type in all cases: cell-based, human
For one series, the system named is hPSC-derived neurons. The series can be described thus: Survival of cultures maintained in P/S/D in the final differentiation step. As to conditions: 3 uM.
The test system of series [1] is hPSCs. The series is described as follows: Neuronal induction efficiency, intracellular flow cytometry for TUJ1. As to conditions: day 13.
The test system of series [2] is hPSCs. The series is described as follows: Total cell / neuron yield in culture (FIG. 1G). An excerpt: FIGS. 1A-1I depict illustrations, images and graphs showing the rapid induction of cortical neurons from human pluripotent stem cells using a combinatorial small molecule-based protocol. FIG. 1A is a schematic illustration of the pathway manipulations to generate neural crest versus forebrain fates and neural precursor versus accelerated neuronal fates. Protocols for the derivation of SOX10+ neural crest precursor, PAX6+ CNS precursors and BRN3A/ISL1+sensory neurons have been reported while the current invention is focused on a strategy for the rapid induction of cortical neurons. […] FIG. 1C depicts graphs of the time-course quantitative analyses of CNS (PAX6::H2B-GFP, left), NC (SOX10::GFP, middle) and placode (SIX1::H2B-GFP, right) induction under the various protocols. […] FIG. 1F is a graph showing the quantification of the TUJ1 data from FIGS. 1D and 1E at day 13 of differentiation by intracellular flow. […] FIG. 1G depicts graphs of the P and S single and combinatorial dose response analyses based on quantification of the percentages of NESTIN+ and TUJ1+ cells by intracellular flow cytometry (upper), and an estimate of the total neurons in culture per cm^2 (for every hPSC plated at day 0 under P1S5D and P8S10D conditions, ˜0.7 and 0.2 neurons were obtained respectively at day 13). […]

For a further series, the system named is AMPA receptors. The series is described as follows: Spontaneous excitatory postsynaptic currents (sEPSCs) recording. Conditions: P1S5D+none conditions at day 40.
Series [3] deals with hPSCs. The series is described as follows: Proliferation (pH3) and cell death (cleaved Caspase 3) after P/S/D treatment. Conditions: for cell proliferation (phospho-Histone 3): as early as 24 hrs after P/S treatment (day 3). The text has this:
(a) Percentage of mitotic cells expressing phospho-histone 3 (pH3) among total cells at one day after P/S/D treatment (day 3 of differentiation). (b) Percentage of apoptotic cells expressing cleaved caspase 3 (CC3) among total cells at one day after P/S/D treatment (day 3 of differentiation). The conditions highlighted in the dashed line boxes in a,b are the P1 dosage groups aligned by ascending order of S concentration. For a,b, N=4 randomly selected photo frames from each of the 2 independent batches of cell cultures. Statistical analysis was carried out using the Dunnett's multiple comparison test to compare each dosage with LSB+X at day 3 of differentiation. […] (c) Summary of grouped results in a following the order of increasing concentration of P, or increasing concentration of S (d). (e) Summary of grouped results in b following the order of increasing concentration of P, or increasing concentration of S (f). […] Black dots represent values from quantification of individual photos frames. […]
Increased total neuron yields were obtained when lower PD concentrations were combined with SU exposure in an effort to balance neuronal induction efficiency and overall cell toxicity. […] To understand whether reduced yield is due to rapid cell cycle exit or direct toxicity, we measured phospho-Histone 3 (pH3) and cleaved Caspase 3 (CC3) as markers of cell proliferation and death, respectively. […]
EdU was added to the cultures at 5 μM for a window of 48 hrs each starting at various time points of differentiation (day 8, 13, 18, 23, 28, 33), and the cells were fixed at day 40 with 4% paraformaldehyde for 20 mins. EdU was detected with the Click-iT EdU Imaging Kit (Invitrogen) according to the specifications of the manufacturer. Quantification of EdU positive and cortical layer marker positive neurons in the EdU labeling experiments, and the quantification of marker positive neurons and total cells in the long-term culture was carried out using ImageJ with ITCN plugin for nuclei quantification, combined with manual counting. […] All quantification results were plotted in Prism (version 6.0, GraphPad).

Series [4] relates to hPSCs. The series is described as follows: qRT-PCR gene expression analysis during differentiation. As to conditions: forebrain marker, day 13. Here is the method:
Cells were lysed with Trizol Reagent (Life Technology) and stored in -20° C. Total RNA was extracted using phenol/chloroform and isopropanol precipitation, and dissolved in ddH2O. cDNA was made using the QuantiTech Reverse Transcription Kit (Qiagen). Quantitative RT-PCR was performed using the Mastercycler […]×2 (Eppendorf), and GAPDH was used as the housekeeping gene control for normalization. Delta Delta Ct and fold changes were calculated and results were plotted in Prism (version 6.0, GraphPad).

A further series has as its system sodium channel.
Setting [5] is: additional treatment on top of PD and SU.

As for `Cc1c[nH]c(-c2cnc(NCCNc3ccc(C#N)cn3)nc2-c2ccc(Cl)cc2Cl)n1` [CHIR], the “effect on survival of cultures maintained in P/S/D” value in the series with hPSC-derived neurons is listed as “strong pro-survival effect”.
`C[C@H](NC(=O)Cc1cc(F)cc(F)c1)C(=O)N[C@H](C(=O)OC(C)(C)C)c1ccccc1` [DAPT]: the “efficiency of neuronal induction” value in the series on hPSCs [1] (setting [5]) is “further increased”. Moreover, the “effect on overall neuron yield” value in the series on hPSCs [2] (setting [5]) is recorded as “did not negatively affect overall neuron yield”.
With `NS(=O)(=O)c1cccc2c1c([N+](=O)[O-])cc1nc(O)c(O)nc12` [NBQX], the “spontaneous excitatory postsynaptic currents (sEPSCs)” value in the series with AMPA receptors is listed as “inhibited”.
Consider `O=C(NOC[C@H](O)CO)c1ccc(F)c(F)c1Nc1ccc(I)cc1F` [PD0325901, N-(2,3-dihydroxy-propoxy)-3,4-difluoro-2-(2-fluoro-4-iodo-phenylamino)-benzamide], for which, in the series with hPSCs [1] (added to LSB+X, at high concentrations), the “TUJ1+%” value was more than 50%. For the same compound, the “yield in total cell numbers” value with hPSCs [2] (at high concentrations, suggesting toxicity) is “low yield in total cell numbers”. Besides, the “cell proliferation (phospho-Histone 3)” value in the series on hPSCs [3] is reported as “reduced cell proliferation”. The FOXG1 induction result with hPSCs [4] is “reduced the efficiency of FOXG1 induction”.
As to `NC1=N[C@H](O)[C@H]2[C@H]3O[C@]4(O)O[C@@H]([C@@H](O)[C@@]2(N1)[C@@H]4O)[C@]3(O)CO` [Tetrodotoxin], the “voltage-dependent sodium channel responses” value in the series on sodium channel is reported as “blocked”.
Consider `Cc1c[nH]c(/C=C2\C(=O)Nc3ccccc32)c1CCC(=O)O` [SU5402, 2-[(1,2-Dihydro-2-oxo-3H-indol-3-ylidene)methyl]-4-methyl-1H-pyrrole-3-pr-opanoic acid], for which the “cell proliferation (phospho-Histone 3)” value with hPSCs [3] is listed as “reduced cell proliferation”. For the same compound, the “cell death (cleaved Caspase 3)” value with hPSCs [3] (one day after P/S/D treatment (day 3)) is given as “observed only at high doses”.
